Experimental findings from ChEMBL document CHEMBL1800038, “Kabiramides J and K, trisoxazole macrolides from the sponge Pachastrissa nux” (J Nat Prod, 2011) are described below.

Each structure is given as a SMILES string. Active and inactive are the calls of the source. No cut-off for these calls is given here.

Test [1] concerns Plasmodium falciparum. Put plainly: Antimalarial activity against multidrug-resistance Plasmodium falciparum K1 assessed as growth inhibition by microdilution radioisotope technique. Type of test: functional, organism-based. On the technique in general: Dilution methods test growth across graded concentrations, often in twofold steps.
A short description of test [2]: Cytotoxicity against human Fibroblasts by SRB assay. The test is classed as cell-based. Conditions: Fibroblast. For orientation: In SRB staining, fixed cells bind dye roughly in proportion to their protein.
The test system of a further test is MCF7. Put plainly: Cytotoxicity against human MCF7 cells by SRB assay. The test is classed as functional, cell-based.
In test [3] the test system is Plasmodium falciparum. Put plainly: Antimalarial activity against multidrug-resistance Plasmodium falciparum K1 assessed as growth inhibition at […] by microdilution radioisotope technique. Type of test: functional, organism-based.

A word on the IC50: it is the concentration at which inhibition is half-maximal. For `C[C@H]1[C@@H](O)O[C@@H]2O[C@@]3(C)CC[C@H]4[C@H](C)CC[C@@H]1[C@@]24OO3` [ARTENIMOL], in the test on Plasmodium falciparum [1], the IC50 was 0.0038 µM.
As for `CC[C@@]1(O)C(=O)OCc2c1cc1n(c2=O)Cc2cc3ccccc3nc2-1` [CAMPTOTHECIN], the IC50 in test [2] is 0.459 µM; in the test with MCF7, 0.0016 µM.
Take `CO[C@H]([C@H](C)/C=C/N(C)C=O)[C@@H](C)C(=O)CC[C@H](C)[C@H](C[C@@H]1OC(=O)C[C@@H](OC(N)=O)C[C@H](C)C[C@H](O)[C@H](C)[C@@H](OC)c2coc(n2)-c2coc(n2)-c2coc(n2)/C=C/C[C@H](O)[C@H]1C)OC` [KABIRAMIDE B]: the concentration for half-maximal inhibition (IC50) in test [2] came out at 0.95 µM; in the test with MCF7, 0.45 µM; with Plasmodium falciparum [1], 1.67 µM.
On the same counts, the results for `CO[C@H]([C@H](C)/C=C/N(C)C=O)[C@@H](C)C(=O)CC[C@H](C)[C@H](C[C@@H]1OC(=O)C[C@@H](OC(N)=O)C[C@H](C)C[C@H](O)[C@H](C)[C@@H](OC)c2coc(n2)-c2coc(n2)-c2coc(n2)/C=C/C[C@H](OC)[C@H]1C)OC` [KABIRAMIDE C] are 7.59 µM, 0.47 µM and 4.79 µM.
For `CO[C@H]([C@H](C)/C=C/N(C)C=O)[C@@H](C)C(=O)CC[C@H](C)[C@H](C[C@@H]1OC(=O)C[C@@H](O)C[C@H](C)C[C@H](O)[C@H](C)[C@@H](OC)c2coc(n2)-c2coc(n2)-c2coc(n2)/C=C/C[C@H](OC)[C@H]1C)OC` [KABIRAMIDE D], the IC50 was 0.5 µM in test [2], 0.02 µM in the test on MCF7 and 1.87 µM in the test with Plasmodium falciparum [1].
With `CO[C@H]1C/C=C/c2nc(co2)-c2nc(co2)-c2nc(co2)[C@H](OC)[C@@H](C)[C@@H](O)C[C@@H](C)C[C@H](OC(N)=O)CC(=O)O[C@@H](C[C@H](OC)[C@@H](C)CCC(=O)/C(C)=C/[C@H](C)/C=C/N(C)C=O)[C@@H]1C` [KABIRAMIDE G], the IC50 in test [2] was 2.37 µM; in the test with MCF7, 0.02 µM. Besides, the inhibition result in the test with Plasmodium falciparum [3] is “inactive”.
Consider `CO[C@@H](C[C@@H]1OC(=O)C[C@@H](OC(N)=O)C[C@H](C)C[C@H](O)[C@H](C)[C@@H](OC)c2coc(n2)-c2coc(n2)-c2coc(n2)/C=C/C[C@H](O)[C@H]1C)[C@@H](C)CCC(=O)/C(C)=C/[C@H](C)/C=C/N(C)C=O` [KABIRAMIDE J], for which the IC50 with MCF7 was found to be 0.02 µM; in the test on Plasmodium falciparum [1], 0.31 µM.
Turning to `CO[C@H]1C/C=C/c2nc(co2)-c2nc(co2)-c2nc(co2)[C@H](OC)[C@@H](C)[C@@H](O)C[C@@H](C)C[C@H](O)CC(=O)O[C@@H](C[C@H](OC)[C@@H](C)CCC(=O)/C(C)=C/[C@H](C)/C=C/N(C)C=O)[C@@H]1C` [KABIRAMIDE K], the IC50 was 0.07 µM with MCF7 and 0.39 µM with Plasmodium falciparum [1].
